Experiments:
[1] = tested on: cows and buffaloes; assay: Example 3: totals for cows and buffaloes together
Method: (§1) The first study was conducted in a population primarily comprising cows and buffaloes. […] Equal number of animals were used in the standard/control group for comparison. The animals were in the study group were allowed to undergo one insemination. Thereafter, i.e. within 35-50 minutes, the material prepared according to the process described in Example 1 was administered to the animals in the study group. The animals in the control/standard group were not subject to administration of any material. Mating or insemination was not controlled. All the animals were allowed to move freely in their usual environment and were kept on normal diet. Their behavior and temperature/temperament especially of the study group. was monitored.
(§2) These animals were administered vinegar, dilute acetic acid, and sodium acetate solution in acidic pH separately.

[2] = tested on: cows; assay: Example 3: vinegar, dilute acetic acid or acidified sodium acetate, no control group, cows
Method: as §1, §2

[3] = tested on: buffaloes; assay: Example 3: vinegar, dilute acetic acid or acidified sodium acetate, no control group, buffaloes
Method: as §1, §2

Row | Compound | animals that did not conceive ([1]; cows and buffaloes together) | female offsprings delivered ([1]; cows and buffaloes together) | share of female offsprings ([1]; cows and buffaloes together) | Animals not conceived ([2]; cows, no control group) | No. of Miscarriages ([2]; cows, no control group) | OFFSPRING Females ([2]; cows, no control group) | OFFSPRING Males ([2]; cows, no control group) | Animals not conceived [3] | No. of Miscarriages [3] | OFFSPRING Females [3] | OFFSPRING Males [3] | animals that did not conceive ([1]; female, cows and buffaloes, in vivo) | animals that reported miscarriage ([1]; in vivo) | Animals not conceived ([2]; female, cows, in vivo) | No. of Miscarriages ([2]; in vivo)
1 | CC(=O)[O-].[Na+] [Sodium Acetate Acidified, sodium acetate] | 3 | 12 | 100% | 1 | Nil | 4 | Nil | 2 | Nil | 8 | Nil |  |  |  | 
2 | CC(=O)O [Acetic Acid dilute, acetic acid] |  | 17 | 100% |  |  | 6 | Nil | 3 | Nil | 11 | Nil | 5 | no animals reported miscarriage | 2 | Nil
